Values after ≈ are worked out from the molar mass of the structure shown.
Legend:
SW480 cells = experiment: MTT anti-proliferative assay, SW480; format: cell-based, human; conditions: for Cytotoxicity IC50, SW480: human, 72 h
Procedure: (§1) All of the cells were incubated at 37 °C in a humidified atmosphere composed of 95% air and 5% CO2. The cell viability was determined by measuring the ability of cells to transform MTT (Genview, Houston, TX, USA) to a purple formazan dye. The cells were seeded in 96-well tissue culture plates at 2.5 × 10^3 cells/well for 24 h. […] After incubation, 20 μL/well of MTT solution (5 mg/mL phosphate buffered saline) were added and incubated for 5 h. The medium was aspirated and replaced with 100 μL/well of DMSO to dissolve the formazan salt. The color intensity of the formazan solution, which reflects the cell growth condition, was measured at 570 nm using a microplate spectrophotometer (SpectroAma™ 250, Winooski, VT, USA).

U87 cells = experiment: MTT anti-proliferative assay, U87; format: cell-based, human; conditions: for Cytotoxicity IC50, U87: human, 72 h
Procedure: as §1

MCF-7 cells = experiment: MTT anti-proliferative assay, MCF-7; format: cell-based, human; conditions: for Cytotoxicity IC50, MCF-7: human, 72 h
Procedure: as §1

HepG2 cells [1] = experiment: MTT anti-proliferative assay, HepG2; format: cell-based, human; conditions: for Cytotoxicity IC50, HepG2: human, 72 h
Procedure: as §1

[2] = MTT anti-proliferative assay, L02; format: cell-based; conditions: human
Procedure: as §1

PARP = experiment: Western blot, cleaved PARP in HepG2; format: cell-based, human; conditions: HepG2, 3, 6, 12, and 24 μg/mL, 72 h
Procedure: (§2) The protein was extracted with RIPA buffer and quantified using the Bradford method. Equal amounts of protein were loaded into each well. After SDS-PAGE, the proteins were transferred to a polyvinylidene difluoride (PVDF) membrane. The membrane was blocked with 5% non-fat milk for 1 h and incubated with a primary antibody (Cell Signaling Technology, Danvers, MA, USA, Rabbit monoclonal antibody, 1:1000) at 4 °C overnight. After washing two times with TBST (Tris-buffered saline with 0.1% Tween-20) buffer, the membrane was incubated with a secondary antibody (goat-anti-rabbit horseradish peroxidase (HRP)-conjugated 1:15,000) at room temperature for 1 h. The membranes were washed three times (8 min each time) with TBST. The intensity of the specific immunoreactive bands was detected through enhanced chemiluminescence (ECL).

HepG2 cells [3] = experiment: Hoechst33342 staining, nuclear damage observation; format: cell-based, human; conditions: HepG2, 3, 6, 12 μg/mL, 72 h
Procedure: Apoptotic nuclear morphology was visualized by the Hoechsst33342 staining technique. Cells were fixed with 3.7% of paraformaldehyde for 10 min at room temperature and washed three times with PBS. Thus, paraformaldehyde-fixed cells were stained using Hoechsst33342 (10 μg/mL) in the dark for 10 min. After washing three times with PBS, cells were visualized using fluorescence microscope.

caspase-3 = experiment: Western blot, cleaved caspase-3 in HepG2; format: cell-based, human; conditions: HepG2, 3, 6, 12, and 24 μg/mL, 72 h
Procedure: as §2

HepG2 cells [4] = experiment: Annexin V-FITC/PI flow cytometry apoptosis analysis; format: cell-based, human; conditions: 72 h; for percentage of early apoptotic cells: mean; for Q4 (lower right, early apoptotic cells), representative dot plot: Figure 3 picture
Procedure: The apoptotic cells were quantified using an Annexin V-FITC (Sigma-Aldrich, USA) Apoptosis Detection Kit according to the manufacturer’s instructions. […] Five μL of Annexin V-fluorescein isothiocyanate (FITC) and 5 μL of PI were added. The analysis was performed with a FACScan flow cytometer (Coulter Epics Elite, Miami, FL, USA). The cells in the FITC-positive and PI-negative fraction were regarded as apoptotic cells.

caspase-9 = experiment: Western blot, cleaved caspase-9 in HepG2; format: cell-based, human; conditions: HepG2, 3, 6, 12, and 24 μg/mL, 72 h
Procedure: as §2

[5] = system: human renal cell carcinoma GRC-1; conditions: earlier research; cited from earlier work
[6] = system: hepatocellular carcinoma HepG2; conditions: earlier research; cited from earlier work

Compound | Cytotoxicity IC50, SW480 (SW480 cells) [µg/mL] | Cytotoxicity IC50, U87 (U87 cells) [µg/mL] | Cytotoxicity IC50, MCF-7 (MCF-7 cells) [µg/mL] | Cytotoxicity IC50, HepG2 (HepG2 cells [1]) [µg/mL] | IC50 at 72 h [2] [µg/mL] | cleaved PARP expression (PARP) | nuclear morphology (Hoechst33342) (HepG2 cells [3]) | cleaved caspase-3 expression (caspase-3) | Q4 (lower right, early apoptotic cells), representative dot plot (HepG2 cells [4]; HepG2, 6 μg/ml) [%] | Q4 (lower right, early apoptotic cells), representative dot plot (HepG2 cells [4]; HepG2, 12 μg/ml) [%] | cleaved caspase-9 expression (caspase-9) | other results
CC(C)C[C@@H]1NC(=O)[C@@H](CC(C)C)N(C)C(=O)[C@H](CC(C)C)NC(=O)[C@@H](Cc2ccccc2)N(C)C(=O)[C@H](CC(C)C)NC1=O [Compound A3, Cyclo(Me-D-Leu-Leu-Leu-Me-D-Phe-Leu)] | 10.20 ± 0.15 | 20.16 ± 0.30 | 7.23 ± 0.27 | 5.58 ± 0.11 | > 40 |  |  |  |  |  |  | 
CC(C)C[C@@H]1NC(=O)[C@@H](CC(C)C)NC(=O)[C@@H](CC(C)C)N(C)C(=O)[C@@H](CC(C)C)NC(=O)[C@@H](Cc2ccccc2)N(C)C1=O [Compound A5, Cyclo(Leu-D-N-Me-Phe-D-Leu-D-N-Me-Leu-D-Leu)] | 5.10 ± 0.12 | 1.85 ± 0.11 | 4.18 ± 0.15 | 1.46 ± 0.09 | 10.6 ± 0.6 (≈ 16.8 µM) | significantly increased | chromatin condensation at the edges of the nuclear membrane and nuclear fragmentation | significantly increased | 19.9 | 22.4 | significantly increased | fold more active than galaxamide, SW480 (SW480 cells; ratio of IC50 values): 8.59 fold; fold more active than galaxamide, U87 (U87 cells; ratio of IC50 values): 5.73 fold; fold more active than galaxamide, MCF-7 (MCF-7 cells; ratio of IC50 values): 3.37 fold; percentage of early apoptotic cells (HepG2 cells [4]; HepG2, 3 μg/mL): 6.6% ± 1.7%; Q4 (lower right, early apoptotic cells), representative dot plot (HepG2 cells [4]; HepG2, 3 μg/ml): 6.6%; percentage of early apoptotic cells (HepG2 cells [4]; HepG2, 12 μg/mL): 22.4% ± 2.4%; fold more active than galaxamide, HepG2 (HepG2 cells [1]; ratio of IC50 values): 3.17 fold
CC(C)C[C@@H]1NC(=O)[C@@H](CC(C)C)N(C)C(=O)[C@H](CC(C)C)NC(=O)[C@@H](Cc2ccccc2)N(C)C(=O)[C@@H](CC(C)C)NC1=O [Compound A4, Cyclo(Me-D-Leu-Leu-D-Leu-Me-D-Phe-Leu)] | 8.60 ± 0.08 | 2.82 ± 0.10 | 6.56 ± 0.18 | 6.27 ± 0.13 | > 40 |  |  |  |  |  |  | 
CC(C)C[C@@H]1NC(=O)[C@H](CC(C)C)N(C)C(=O)[C@H](CC(C)C)NC(=O)[C@H](CC(C)C)N(C)C(=O)[C@@H](Cc2ccccc2)NC1=O [Compound A2, Cyclo(D-Phe-N-Me-Leu-Leu-N-Me-Leu-D-Leu)] | 5.75 ± 0.19 | >40 | 9.64 ± 0.35 | 4.56 ± 0.20 | > 40 |  |  |  |  |  |  | 
Galaxamide |  |  |  |  |  | significantly increased | chromatin condensation at the edges of the nuclear membrane and nuclear fragmentation | significantly increased | 2.1 | 13.4 | significantly increased | antitumor activity against GRC-1 [5]: significant antitumor activity; antitumor activity against HepG2 [6]: significant antitumor activity; percentage of early apoptotic cells (HepG2 cells [4]; HepG2, 6 μg/mL): 2.3% ± 0.3%; percentage of early apoptotic cells (HepG2 cells [4]; HepG2, 24 μg/mL): 18.8% ± 1.9%; Q4 (lower right, early apoptotic cells), representative dot plot (HepG2 cells [4]; HepG2, 24 μg/ml): 18.8%
CC(C)C[C@@H]1NC(=O)[C@H](CC(C)C)N(C)C(=O)[C@H](CC(C)C)NC(=O)[C@H](CC(C)C)N(C)C(=O)[C@H](Cc2ccccc2)NC1=O [Compound A1, Cyclo(Phe-N-Me-Leu-Leu-N-Me-Leu-Leu)] | 12.37 ± 1.01 | >40 | 9.40 ± 0.43 | 4.11 ± 0.16 | > 40 |  |  |  |  |  |  | 

Source: PMC4145329 (Marine Drugs, 2014)
